In ChEMBL document CHEMBL4732242 (Eur J Med Chem, 2021):

How the values were obtained:
[1] = biological target: T1, Homeodomain-interacting protein kinase 2 (Homo sapiens, UniProt Q9H2X6); assay: Inhibition of HIPK2 (unknown origin) by selectscreen kinase assay
[2] = biological target: T2, Dual specificity protein kinase CLK2 (Homo sapiens, UniProt P49760); assay: Inhibition of human recombinant CLK2 using YRRAAVPPSPSLSR substrate by radiometric scintillation assay
[3] = biological target: T3, Dual specificity protein kinase CLK4 (Homo sapiens, UniProt Q9HAZ1); assay: Inhibition of human recombinant CLK4 using YRRAAVPPSPSLS substrate by radiometric scintillation assay
T3 sequence (Q9HAZ1 whole entry): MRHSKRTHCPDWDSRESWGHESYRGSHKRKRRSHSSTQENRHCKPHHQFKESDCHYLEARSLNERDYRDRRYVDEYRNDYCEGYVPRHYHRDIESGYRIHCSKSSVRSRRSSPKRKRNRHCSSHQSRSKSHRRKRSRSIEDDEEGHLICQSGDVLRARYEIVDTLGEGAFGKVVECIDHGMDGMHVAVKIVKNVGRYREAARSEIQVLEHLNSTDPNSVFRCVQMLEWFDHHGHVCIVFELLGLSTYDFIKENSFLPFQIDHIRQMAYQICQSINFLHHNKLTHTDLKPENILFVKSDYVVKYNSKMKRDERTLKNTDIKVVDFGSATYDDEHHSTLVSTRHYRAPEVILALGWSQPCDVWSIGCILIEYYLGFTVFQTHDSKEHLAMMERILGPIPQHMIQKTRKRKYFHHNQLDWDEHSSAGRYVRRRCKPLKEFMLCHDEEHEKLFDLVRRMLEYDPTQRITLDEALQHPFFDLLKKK

[4] = biological target: Mitogen-activated protein kinase kinase kinase 11 (Homo sapiens, UniProt Q16584); assay: Inhibition of MLK3 (unknown origin) by NanoBRET cellular target engagement assay
[5] = biological target: T4, Dual specificity tyrosine-phosphorylation-regulated kinase 1B (Homo sapiens, UniProt Q9Y463); assay: Inhibition of human full length recombinant DYRK1B using RRRFRPASPLRGPP substrate by radiometric scintillation assay
T4 sequence (Q9Y463 whole entry): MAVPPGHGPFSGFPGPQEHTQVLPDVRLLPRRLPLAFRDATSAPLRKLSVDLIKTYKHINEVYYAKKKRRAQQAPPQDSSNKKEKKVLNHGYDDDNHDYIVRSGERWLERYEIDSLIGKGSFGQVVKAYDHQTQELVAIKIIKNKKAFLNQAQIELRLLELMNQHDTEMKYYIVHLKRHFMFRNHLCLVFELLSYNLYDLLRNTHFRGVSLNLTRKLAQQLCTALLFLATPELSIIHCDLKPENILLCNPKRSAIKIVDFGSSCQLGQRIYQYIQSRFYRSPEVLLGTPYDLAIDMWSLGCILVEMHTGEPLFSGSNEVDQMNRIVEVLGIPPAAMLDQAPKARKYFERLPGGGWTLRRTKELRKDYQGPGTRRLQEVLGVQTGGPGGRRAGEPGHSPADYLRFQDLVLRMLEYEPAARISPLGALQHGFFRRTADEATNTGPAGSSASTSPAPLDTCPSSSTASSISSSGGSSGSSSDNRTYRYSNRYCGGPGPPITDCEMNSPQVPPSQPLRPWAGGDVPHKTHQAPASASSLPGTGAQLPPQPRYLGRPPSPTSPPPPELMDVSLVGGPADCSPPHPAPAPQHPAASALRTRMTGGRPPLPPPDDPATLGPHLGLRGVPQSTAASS

[6] = biological target: Cyclin-dependent kinase-like 3 (Homo sapiens, UniProt Q8IVW4); assay: Inhibition of CDKL3 (unknown origin) by NanoBRET cellular target engagement assay
[7] = biological target: T5, Dual specificity protein kinase CLK1 (Homo sapiens, UniProt P49759); assay: Inhibition of CLK1 (unknown origin) by NanoBRET cellular target engagement assay
T5 sequence (P49759 whole entry): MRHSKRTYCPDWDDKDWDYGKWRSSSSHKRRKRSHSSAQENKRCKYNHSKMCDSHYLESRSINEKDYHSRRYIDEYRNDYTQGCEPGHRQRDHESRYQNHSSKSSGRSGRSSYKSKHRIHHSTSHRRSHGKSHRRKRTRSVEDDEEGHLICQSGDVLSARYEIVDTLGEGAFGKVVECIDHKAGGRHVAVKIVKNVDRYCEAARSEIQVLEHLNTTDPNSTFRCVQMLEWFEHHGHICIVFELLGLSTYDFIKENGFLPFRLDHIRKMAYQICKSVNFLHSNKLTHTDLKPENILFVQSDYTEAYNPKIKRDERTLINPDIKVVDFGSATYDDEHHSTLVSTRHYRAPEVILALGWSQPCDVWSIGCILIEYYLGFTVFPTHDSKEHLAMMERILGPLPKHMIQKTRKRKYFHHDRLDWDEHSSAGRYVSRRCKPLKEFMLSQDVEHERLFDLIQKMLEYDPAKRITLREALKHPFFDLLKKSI

[8] = biological target: Mitogen-activated protein kinase kinase kinase 10 (Homo sapiens, UniProt Q02779); assay: Inhibition of MLK2 (unknown origin) by NanoBRET cellular target engagement assay
[9] = biological target: T3, Dual specificity protein kinase CLK4; assay: Inhibition of CLK4 (unknown origin) by NanoBRET cellular target engagement assay
[10] = biological target: T5, Dual specificity protein kinase CLK1; assay: Inhibition of human recombinant CLK1 using ERMRPRKRQGSVR substrate by radiometric scintillation assay
[11] = biological target: T4, Dual specificity tyrosine-phosphorylation-regulated kinase 1B; assay: Inhibition of DYRK1B (unknown origin) by NanoBRET cellular target engagement assay
[12] = biological target: Mitogen-activated protein kinase kinase kinase 9 (Homo sapiens, UniProt P80192); assay: Inhibition of MLK1 (unknown origin) by NanoBRET cellular target engagement assay
[13] = biological target: T1, Homeodomain-interacting protein kinase 2; assay: Inhibition of human recombinant HIPK2 using myelin substrate by radiometric scintillation assay
[14] = biological target: T2, Dual specificity protein kinase CLK2; assay: Inhibition of CLK2 (unknown origin) by NanoBRET cellular target engagement assay
[15] = biological target: T6, Dual specificity tyrosine-phosphorylation-regulated kinase 1A (Homo sapiens, UniProt Q13627); assay: Inhibition of human full length recombinant DYRK1A using RRRFRPASPLRGPP substrate by radiometric scintillation assay
[16] = biological target: T7, Dual specificity tyrosine-phosphorylation-regulated kinase 2 (Homo sapiens, UniProt Q92630); assay: Inhibition of DYRK2 (unknown origin) by NanoBRET cellular target engagement assay
T7 sequence (Q92630 whole entry): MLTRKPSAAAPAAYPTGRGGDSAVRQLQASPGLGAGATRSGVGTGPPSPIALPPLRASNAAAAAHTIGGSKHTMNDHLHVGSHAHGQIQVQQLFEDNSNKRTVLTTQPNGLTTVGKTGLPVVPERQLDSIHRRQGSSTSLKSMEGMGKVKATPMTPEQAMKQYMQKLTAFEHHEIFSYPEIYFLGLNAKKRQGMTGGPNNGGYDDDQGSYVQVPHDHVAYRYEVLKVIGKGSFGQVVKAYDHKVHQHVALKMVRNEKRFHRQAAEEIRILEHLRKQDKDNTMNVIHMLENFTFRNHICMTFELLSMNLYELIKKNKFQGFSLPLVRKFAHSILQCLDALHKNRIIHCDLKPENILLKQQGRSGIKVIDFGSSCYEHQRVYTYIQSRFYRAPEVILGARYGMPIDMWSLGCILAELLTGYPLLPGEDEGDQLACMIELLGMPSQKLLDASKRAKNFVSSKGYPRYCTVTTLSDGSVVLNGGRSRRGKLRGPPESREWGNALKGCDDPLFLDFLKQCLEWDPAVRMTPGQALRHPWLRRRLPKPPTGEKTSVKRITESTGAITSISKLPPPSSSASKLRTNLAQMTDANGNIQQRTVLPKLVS

[17] = biological target: T7, Dual specificity tyrosine-phosphorylation-regulated kinase 2; assay: Inhibition of human full length recombinant DYRK2 using casein substrate by radiometric scintillation assay
[18] = biological target: T8, Homeodomain-interacting protein kinase 1 (Homo sapiens, UniProt Q86Z02); assay: Inhibition of human recombinant HIPK1 using myelin substrate by radiometric scintillation assay
T8 sequence (Q86Z02 whole entry): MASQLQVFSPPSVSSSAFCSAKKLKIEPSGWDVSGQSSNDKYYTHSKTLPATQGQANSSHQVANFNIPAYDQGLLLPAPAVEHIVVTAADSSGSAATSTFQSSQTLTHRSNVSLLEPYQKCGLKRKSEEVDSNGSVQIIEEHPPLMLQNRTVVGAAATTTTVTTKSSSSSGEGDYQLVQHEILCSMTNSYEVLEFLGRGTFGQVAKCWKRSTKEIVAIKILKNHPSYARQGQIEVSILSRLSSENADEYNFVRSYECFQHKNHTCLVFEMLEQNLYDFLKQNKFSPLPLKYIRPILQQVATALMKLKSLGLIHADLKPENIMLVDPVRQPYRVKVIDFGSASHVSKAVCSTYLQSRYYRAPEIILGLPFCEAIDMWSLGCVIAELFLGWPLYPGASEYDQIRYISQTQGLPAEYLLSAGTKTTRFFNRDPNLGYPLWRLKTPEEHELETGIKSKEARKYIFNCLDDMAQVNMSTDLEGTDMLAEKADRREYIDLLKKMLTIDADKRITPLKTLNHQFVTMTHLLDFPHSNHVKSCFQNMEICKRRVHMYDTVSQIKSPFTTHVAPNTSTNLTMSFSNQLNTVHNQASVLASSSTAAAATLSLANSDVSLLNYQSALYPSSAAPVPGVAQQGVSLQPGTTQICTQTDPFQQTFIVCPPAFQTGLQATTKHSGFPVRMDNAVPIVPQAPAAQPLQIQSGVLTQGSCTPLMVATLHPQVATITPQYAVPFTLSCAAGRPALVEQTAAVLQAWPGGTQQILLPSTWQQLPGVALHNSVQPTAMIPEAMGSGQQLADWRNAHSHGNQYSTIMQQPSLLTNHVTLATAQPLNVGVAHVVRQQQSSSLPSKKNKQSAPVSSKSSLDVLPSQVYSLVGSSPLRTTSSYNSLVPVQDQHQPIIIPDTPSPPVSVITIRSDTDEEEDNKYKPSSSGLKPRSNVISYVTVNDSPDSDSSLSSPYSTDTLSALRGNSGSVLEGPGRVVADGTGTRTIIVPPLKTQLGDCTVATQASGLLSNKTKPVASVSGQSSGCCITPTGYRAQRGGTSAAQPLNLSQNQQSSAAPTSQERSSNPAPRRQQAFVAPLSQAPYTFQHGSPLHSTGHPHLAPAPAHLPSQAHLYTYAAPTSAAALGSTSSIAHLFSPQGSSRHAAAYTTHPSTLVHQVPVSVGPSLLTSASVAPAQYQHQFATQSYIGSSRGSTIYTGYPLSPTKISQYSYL

[19] = biological target: T6, Dual specificity tyrosine-phosphorylation-regulated kinase 1A; assay: Inhibition of DYRK1A (unknown origin) by NanoBRET cellular target engagement assay
[20] = biological target: T9, Dual specificity protein kinase CLK3 (Homo sapiens, UniProt P49761); assay: Inhibition of human full length recombinant CLK3 using ERMRPRKRQGSVR substrate by radiometric scintillation assay
T9 sequence (P49761 whole entry): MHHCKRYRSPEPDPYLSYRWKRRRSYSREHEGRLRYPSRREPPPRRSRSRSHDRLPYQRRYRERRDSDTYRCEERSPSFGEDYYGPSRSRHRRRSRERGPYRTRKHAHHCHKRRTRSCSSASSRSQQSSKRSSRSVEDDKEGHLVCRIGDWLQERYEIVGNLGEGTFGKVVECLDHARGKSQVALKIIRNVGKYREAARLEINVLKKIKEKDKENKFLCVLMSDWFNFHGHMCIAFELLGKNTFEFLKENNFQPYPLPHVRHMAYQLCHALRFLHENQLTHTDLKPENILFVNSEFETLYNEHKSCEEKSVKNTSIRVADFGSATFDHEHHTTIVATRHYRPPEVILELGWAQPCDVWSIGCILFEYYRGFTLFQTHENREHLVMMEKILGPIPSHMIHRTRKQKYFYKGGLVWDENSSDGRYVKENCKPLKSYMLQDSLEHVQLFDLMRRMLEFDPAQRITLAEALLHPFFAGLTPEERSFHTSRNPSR

[21] = biological target: T9, Dual specificity protein kinase CLK3; assay: Inhibition of CLK3 (unknown origin) by NanoBRET cellular target engagement assay
[22] = biological target: T10, Homeodomain-interacting protein kinase 3 (Homo sapiens, UniProt Q9H422); assay: Inhibition of human recombinant HIPK3 using myelin substrate by radiometric scintillation assay
T10 sequence (Q9H422 whole entry): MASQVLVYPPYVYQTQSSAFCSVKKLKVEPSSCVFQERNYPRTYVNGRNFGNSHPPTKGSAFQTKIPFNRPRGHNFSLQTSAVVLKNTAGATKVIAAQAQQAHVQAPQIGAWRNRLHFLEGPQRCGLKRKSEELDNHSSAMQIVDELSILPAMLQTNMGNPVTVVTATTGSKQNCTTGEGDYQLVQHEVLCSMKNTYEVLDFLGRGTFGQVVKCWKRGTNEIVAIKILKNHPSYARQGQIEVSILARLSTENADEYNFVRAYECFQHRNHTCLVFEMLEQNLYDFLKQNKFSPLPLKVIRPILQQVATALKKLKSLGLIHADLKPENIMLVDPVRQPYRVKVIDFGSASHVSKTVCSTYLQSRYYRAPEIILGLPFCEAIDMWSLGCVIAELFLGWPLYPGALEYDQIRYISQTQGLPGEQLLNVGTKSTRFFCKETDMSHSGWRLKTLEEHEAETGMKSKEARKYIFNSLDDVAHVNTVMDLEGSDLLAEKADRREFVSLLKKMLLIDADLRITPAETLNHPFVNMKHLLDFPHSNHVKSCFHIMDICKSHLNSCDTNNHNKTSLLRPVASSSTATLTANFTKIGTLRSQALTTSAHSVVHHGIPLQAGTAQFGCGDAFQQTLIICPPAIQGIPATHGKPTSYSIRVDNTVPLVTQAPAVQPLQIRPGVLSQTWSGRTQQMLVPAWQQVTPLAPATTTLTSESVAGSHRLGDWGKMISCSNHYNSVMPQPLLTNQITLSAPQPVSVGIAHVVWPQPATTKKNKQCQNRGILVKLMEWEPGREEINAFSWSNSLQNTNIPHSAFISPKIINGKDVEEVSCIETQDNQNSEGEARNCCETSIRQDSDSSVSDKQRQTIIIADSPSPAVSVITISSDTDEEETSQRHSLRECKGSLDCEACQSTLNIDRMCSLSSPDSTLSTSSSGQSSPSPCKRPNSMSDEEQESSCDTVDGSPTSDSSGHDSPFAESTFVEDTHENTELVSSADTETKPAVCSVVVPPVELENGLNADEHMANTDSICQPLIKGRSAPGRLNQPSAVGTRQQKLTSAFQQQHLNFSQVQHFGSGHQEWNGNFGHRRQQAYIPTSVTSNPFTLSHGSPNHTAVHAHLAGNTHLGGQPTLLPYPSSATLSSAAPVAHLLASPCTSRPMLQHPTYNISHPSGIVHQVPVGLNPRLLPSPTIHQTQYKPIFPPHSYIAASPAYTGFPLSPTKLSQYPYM

[23] = biological target: T10, Homeodomain-interacting protein kinase 3; assay: Inhibition of HIPK3 (unknown origin)
[24] = biological target: T1, Homeodomain-interacting protein kinase 2; assay: Inhibition of HIPK2 (unknown origin)
[25] = biological target: T11, Homeodomain-interacting protein kinase 4 (Homo sapiens, UniProt Q8NE63); assay: Inhibition of HIPK4 (unknown origin)
T11 sequence (Q8NE63 whole entry): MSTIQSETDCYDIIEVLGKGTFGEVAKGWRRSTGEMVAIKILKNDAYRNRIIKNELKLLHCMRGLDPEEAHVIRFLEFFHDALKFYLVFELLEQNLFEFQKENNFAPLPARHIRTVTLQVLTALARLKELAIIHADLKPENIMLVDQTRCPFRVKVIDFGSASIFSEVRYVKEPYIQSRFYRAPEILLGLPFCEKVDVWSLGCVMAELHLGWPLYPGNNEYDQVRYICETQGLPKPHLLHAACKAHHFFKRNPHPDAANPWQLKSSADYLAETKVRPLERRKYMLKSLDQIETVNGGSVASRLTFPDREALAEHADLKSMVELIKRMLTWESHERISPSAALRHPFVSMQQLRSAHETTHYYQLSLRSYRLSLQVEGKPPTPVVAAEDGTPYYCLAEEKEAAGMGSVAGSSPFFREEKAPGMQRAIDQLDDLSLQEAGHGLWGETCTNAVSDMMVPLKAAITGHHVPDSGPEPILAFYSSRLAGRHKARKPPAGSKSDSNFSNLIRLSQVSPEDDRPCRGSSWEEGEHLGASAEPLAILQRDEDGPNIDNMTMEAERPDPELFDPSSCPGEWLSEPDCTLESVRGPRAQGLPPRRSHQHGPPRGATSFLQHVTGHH

[26] = biological target: T8, Homeodomain-interacting protein kinase 1; assay: Inhibition of HIPK1 (unknown origin)

T2 sequence (P49760 whole entry): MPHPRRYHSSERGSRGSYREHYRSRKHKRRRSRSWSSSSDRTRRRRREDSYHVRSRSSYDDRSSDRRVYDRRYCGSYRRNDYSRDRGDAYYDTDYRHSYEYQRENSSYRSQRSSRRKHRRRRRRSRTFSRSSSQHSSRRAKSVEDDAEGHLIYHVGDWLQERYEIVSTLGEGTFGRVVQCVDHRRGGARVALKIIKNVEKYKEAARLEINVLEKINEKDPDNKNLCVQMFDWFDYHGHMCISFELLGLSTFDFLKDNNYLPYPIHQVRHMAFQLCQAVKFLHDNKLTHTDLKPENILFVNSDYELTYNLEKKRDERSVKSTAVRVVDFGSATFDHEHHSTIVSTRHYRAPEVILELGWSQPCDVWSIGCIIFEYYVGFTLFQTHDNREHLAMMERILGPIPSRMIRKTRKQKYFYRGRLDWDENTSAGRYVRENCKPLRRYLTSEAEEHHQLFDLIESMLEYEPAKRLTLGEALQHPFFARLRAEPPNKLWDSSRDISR

SMILES | IC50 [2] [nM] | IC50 [3] [nM] | IC50 [4] [µM] | IC50 [5] [µM] | IC50 [6] [µM] | IC50 [7] [µM] | IC50 [8] [µM] | IC50 [9] [µM] | IC50 [10] [nM] | IC50 [11] [µM] | IC50 [12] [µM] | IC50 [13] [nM] | IC50 [14] [µM] | IC50 [15] [µM] | IC50 [16] [µM] | IC50 [17] [µM] | IC50 [18] [nM] | IC50 [19] [µM] | IC50 [20] [µM] | IC50 [21] [µM] | also measured
O=C1NC(=O)/C(=C\c2c[nH]c(=O)c(-c3ccc(N4CCNCC4)nc3)c2)S1 |  |  |  |  |  |  |  |  |  |  |  |  |  |  |  |  |  |  |  |  | IC50 [1]: 74 nM
CC(C)(C)c1ccc(-c2coc3ccc(-c4cn[nH]c4)nc23)cc1 | 1430 | 1470 | > 50 | > 3 | > 50 | > 50 | > 50 | 46 | 946 | > 50 | > 50 | 119 | 18 | > 3 | > 50 | > 3 | 248 | 43 | > 3 | 43 | IC50 [22]: 476 nM
CC(C)(C)c1ccc(-c2coc3ccc(-c4cn[nH]n4)nc23)cc1 | > 3000 | > 3000 | > 50 | > 3 | > 50 | > 50 | > 50 | 40 | > 3000 | > 50 | 15 | 123 | > 50 | > 3 | > 50 | > 3 | 285 | > 50 | > 3 | > 50 | IC50 [22]: 283 nM
COc1cc2c(Oc3ccc(NC(=O)C4(C(=O)Nc5ccc(F)cc5)CC4)cc3F)ccnc2cc1OCCCN1CCOCC1 [FORETINIB] |  |  |  |  |  |  |  |  |  |  |  |  |  |  |  |  |  |  |  |  | IC50 [23]: 100 nM; IC50 [24]: 100 nM
Cc1[nH]c(/C=C2\C(=O)Nc3ccc(S(=O)(=O)Cc4c(Cl)cccc4Cl)cc32)c(C)c1C(=O)N1CCC[C@@H]1CN1CCCC1 [PHA-665752] |  |  |  |  |  |  |  |  |  |  |  |  |  |  |  |  |  |  |  |  | IC50 [23]: 100 nM; IC50 [25]: 100 nM; IC50 [26]: 100 nM
